Measured values published in patent US6962945B2, “N-aryloxypropanolyl-N′-phenethyl-urea” (Council of Scientific and Industrial Research, priority 2004, dated 2005).
Entries after “also recorded” stand apart in the source; their conditions may differ.

Tested on: adult male Sprague Dawley rats
Assay: appetite suppressant activity on scheduled fed rat model of appetite
Type: in vivo
Conditions: 20 μmol/kg, by oral route; for decrease in food intake as compared to food intake in the control group: fat rich diet 3 h daily, 30 min prior to food; for change in gross behaviour: observed during the period of feeding
Description: The pharmacological evaluation of the test compounds of general formula 3 was carried out by the following protocol.
The appetite suppressant activity of test compounds was tested on scheduled fed rat model of appetite. The study was conducted in adult male Sprague Dawley rats, weighing 175-200 g on arrival). The animals were housed in transparent cages of Bayer Makrolon type 3118 measuring 425×266×180 with floor area 800 cm^2. In each cage one rat was kept. A special fat rich diet (Diet #12451, Research Diets, NJ, USA) was provided only for 3 h (11 am-2 pm) daily [no diet in rest of the period]. Water was provided for 24 h. Diet was weighed prior to and after observation period by an electronic [Digital display] balance. Food intake was recorded by calculating the difference between prior and after weight of diet. Rats were weighed weekly after feeding. Rats were provided 16 g of diet daily and within 12-14 days animals achieved base line food intake (12-14 g) with gain in body weight (230-250 g) indicating adaptation to scheduled feeding. Only those rats that adapted to schedule feeding were used in the study. Rat showing significant less food intake and weight gain as compared to others was excluded from the study.
Thereafter, tests compounds dissolved in 10% DMSO aqueous solution and given in dose of 20 μmol/kg, by oral route. The test compounds were administered 30 min prior to food. Each test compounds were given in 5 rats. Diet and water was weighed at hourly interval in control and compound treated rats. During the period of feeding the gross behavior of rat was also observed.
The significance of difference between the food intake of treated and control groups was determined by unpaired Student's test [Two tailed p value].

SMILES	decrease in food intake as compared to food intake in the control group [%]	activity compared with Sibutramine	change in water intake	change in gross behaviour
CC(C)CC(N(C)C)C1(c2ccc(Cl)cc2)CCC1 (centres unmarked) [Sibutramine, reference compound]	38.57			
O=C(NCCc1ccccc1)NCC(O)COc1ccc(C(F)(F)F)cc1 (centres unmarked) [compound 3a, N-[2-hydroxy-3-(4-trifluoromethylphenoxy)propyl]-N′-2-phenethyl-urea]	41.42	comparable; also recorded: same activity as Sibutramine	did not cause any significant change	did not cause any significant change
COc1ccc(OCC(O)CNC(=O)NCCc2ccccc2)cc1 (centres unmarked) [compound 3j, N-[2-hydroxy-3-(4-methoxyphenoxy)propyl]-N′-2-phenethyl-urea]	31.82		did not cause any significant change	did not cause any significant change
OC(CNC(=S)NCCc1ccccc1)COc1ccc(C(F)(F)F)cc1 (centres unmarked) [compound 3n, N-[2-hydroxy-3-(4-trifluoromethylphenoxy)propyl]-N′-2-phenethyl-thiourea]	28.4		did not cause any significant change	did not cause any significant change
